Reference: ChEMBL document CHEMBL4396958, “Anti-inflammatory phenylpropanoid glycosides from the fruits of Forsythia suspensa” (Bioorg Med Chem Lett, 2019)

What was measured:
[1] = system: Macrophage; test: Inhibition of TNFalpha expression in LPS-induced macrophages (unknown origin) incubated for 24 hrs by ELISA; assay type: functional, cell-based
[2] = system: Macrophage; test: Inhibition of TNFalpha expression in LPS-induced macrophages (unknown origin) at 10 uM incubated for 24 hrs by ELISA relative to control; assay type: functional

IC50 [1] [nM] | Compound | inhibition at 10 µM [2] [%]
134 | C[C@@H]1C[C@H]2[C@@H]3CCC4=CC(=O)C=C[C@]4(C)[C@@]3(F)[C@@H](O)C[C@]2(C)[C@@]1(O)C(=O)CO [DEXAMETHASONE] | 82.5
1050 | O=C(/C=C/c1ccc(O)cc1)OC[C@H]1O[C@@H](Oc2ccc(/C=C/C(=O)OC[C@H]3OC(O)[C@H](O)[C@@H](O)[C@@H]3O)cc2O)[C@H](O)[C@@H](O)[C@@H]1O (some centres undefined) | 98.3
